One series deals with MOLM13. The series is described as follows: Cell viability by Cell Titer GLO, MOLM13. The settings on record: for IC50: MOLM13, then 48 h inhibitor. Format: cell-based. How it is done: (§1) MOLM13 and MV4-11 are MLL fusion and FLT3-ITD positive, AML cells lines. Both cell lines were treated with 20 nM of alvocidib, a Cdk inhibitor, for 48 hours or DMSO control, followed by the addition of JQ-1, an inhibitor of BET proteins, at various concentrations (10 μM-0.0003 μM) or by the addition of panobinostat, an inhibitor of HDAC, at various concentrations (10 μM-0.0003 μM) for 48 additional hours. At completion, cell viability was measured by Cell Titer GLO reagent. IC50 values were determined for JQ-1 and panobinostat with and without the low dose of alvocidib. Addition of 20 nM alvocidib increased the potency of JQ-1, as shown by an IC50 value of 2-fold lower.
For orientation: Cellular ATP, detected with luciferase, serves as a proxy for viable cell number.

In the next series the test system is c-MYC. The series can be described thus: c-MYC expression by RT-qPCR in MV4-11 cells. Format: cell-based. Conditions: 2 hours, various concentrations. How it is done:
The c-MYC gene is well known to be regulated by the super-enhancer complex in AML cells. JQ-1, a BET protein inhibitor, and alvocidib, a Cdk inhibitor, were used alone and in combination in order to determine the effect of the drug(s) on c-MYC expression. MV4-11 cells were treated with various concentrations of alvocidib and/or JQ-1 for 2 hours. DMSO-treated controls were also included. Treatment was stopped by lysing the cells and isolating RNA for RT-qPCR analysis. The expression of c-MYC was determined and normalized to the housekeeping gene, HPRT1 and to the DMSO-treated control.
On the technique in general: Real-time PCR tracks product formation cycle by cycle.

The subject of a further series is MV4-11 cells. The series is described as follows: MV4-11 subcutaneous xenograft, tumor volume by caliper. Format: in vivo, athymic Nu/Nu mice. The settings on record: for effect on tumor volume: 25 mg/kg JQ-1, 2.5 mg/kg alvocidib or both, intraperitoneally once daily for 5 days, total of 3 weeks. From the text: (§2) The AML cell line, MV4-11 is MLL fusion and FLT3-ITD positive. The MLL fusion makes this cell line particularly dependent upon super-enhancer function for driving oncogenesis. MV4-11 cells were implanted subcutaneously in athymic Nu/Nu mice and allowed to establish until tumors reached 100-200 mm^3. JQ-1, a BET protein inhibitor, and alvocidib, a Cdk inhibitor, were used alone and in combination in order to determine the effect of the drug(s) on tumor volume. Animals were stratified into 4 groups and administered one of four treatments: vehicle, 25 mg/kg JQ-1, 2.5 mg/kg alvocidib, or a combination of the two drugs at these doses. The drugs were administered intraperitoneally, once daily for 5 days, for a total of 3 weeks. Tumor volume was measured twice weekly by caliper measurement. […] Weight gain in vehicle and individual drug-treated mice could be attributed to tumor growth. Weight gain in the mice given the combination treatment could be attributed to the overall health and food intake of the mice.

Series [1] in a line: Body weight of MV4-11 xenograft mice. Format: in vivo, athymic Nu/Nu mice. The settings on record: throughout the study; 25 mg/kg JQ-1, 2.5 mg/kg alvocidib or both.
Text: as §2

The test system of a further series is MV4-11. The series can be described thus: Cell viability by Cell Titer GLO, MV4-11. In kind it is cell-based. Conditions: then 48 h inhibitor. As to the method: as §1
Series [2] has as its system MCL-1 and c-MYC/N-MYC. The series is described as follows: Protein expression by western blotting in SK-N-AS cells. In kind it is cell-based, human. Conditions: 300 nM, time course. As to the method: (§3) A549 cells and SK-N-AS cells (human adrenal neuroblastoma cell line) were seeded and treated with alvocidib at concentrations of 100 nM and 300 nM respectively. Cells were collected at given times and total protein was extracted and detected using western blotting.
In general terms: Immunoblotting shows a protein as a band on a membrane.

For series [3], the system named is MCL-1. The series is described as follows: MCL-1 mRNA expression in A549 cells, alvocidib with JQ-1, RT-qPCR. Conditions: JQ-1 0 nM-50 nM 1 hour, then alvocidib 0 nM-100 nM 2 hours. In kind it is cell-based, human.
Protocol: A549 cells were seeded and treated with alvocidib at concentrations ranging from 0 nM-100 nM in combination with JQ-1 at concentrations ranging from 0 nM-50 nM. Cells were first treated with JQ-1 for 1 hour followed by treatment with alvocidib for 2 hours.
For series [4], the system named is super enhancer complex regulated genes. The series can be described thus: Super enhancer complex regulated genes, mRNA expression in A549 cells. Format: cell-based, human. As to the method: A549 cells are adenocarcinomic human alveolar basal epithelial cells used as a type II pulmonary epithelial model (solid tumor). These cells were seeded and treated with alvocidib in identical concentrations and doses. Treatment was stopped by lysing the cells and isolating RNA for RT-qPCR analysis. […] The expression of mRNA was determined and normalized to β-actin and the control.

Series [5] concerns MYC. The series is described as follows: MYC expression relative to HPRT in MV4-11 cells. The settings on record: alvocidib single agent, two hours. In kind it is cell-based. How it is done:
(§4) To determine the MYC and MCL-1 inhibitory activity of alvocidib, MV4-11 cells were treated with alvocidib for two hours and the expression of MYC and MCL-1 relative to HPRT was determined.

The target of another series is CDK9 and Hexim1 (Homo sapiens, UniProt P50750). The series is described as follows: CDK9/Hexim1 association, immunoprecipitation and western blotting in MV4-11 cells. Format: cell-based. How it is done:
MV4-11 cells were seeded and treated with alvocidib in identical concentrations and doses. Cells were collected at given times and subjected to high salt lysis buffer and immunoprecipitation followed by western blotting. […] FIGS. 11A and 11B provide results of a dose escalation study performed according to the above general procedure. […] Representative western blot is provided in FIG. 11A with quantification of the western blot in FIG. 11B.
Representative western blot is provided in FIG. 12A with quantification of the western blot in FIG. 12B.

Series [6] deals with MCL-1. The series can be described thus: MCL-1 mRNA expression time course in MV4-11 cells, RT-qPCR. Format: cell-based. The settings on record: MV4-11, 100 nM. How it is done: MV4-11 cells were seeded and treated with alvocidib at a concentration of 100 nM. […] Cells were harvested and detection of mRNA was carried out using RT-qPCR analysis in the manner described in previous examples. Expression of MCL-1 was compared to expression of controls and untreated cells. […] There appears to be no inhibition on expression by the 3 hour time point.

Series [7] concerns MCL-1. The series is described as follows: MCL-1 mRNA expression in A549 cells, RT-qPCR. In kind it is cell-based, human. Conditions: 0-8 μM, 2 hours.
Protocol: (§5) A549 cells were seeded and treated with alvocidib at concentrations ranging from 0-8 μM for 2 hours. Following the treatment of solid tumor cells, cells were harvested and mRNA was detected using RT-qPCR in the manner described in previous examples.
For series [8], the system named is MYC. The series is described as follows: MYC mRNA expression in A549 cells, RT-qPCR. In kind it is cell-based, human. The settings on record: 0-8 μM, 2 hours.
Protocol: as §5
Series [9] concerns MCL-1. The series can be described thus: MCL-1 expression relative to HPRT in MV4-11 cells. In kind it is cell-based. The settings on record: alvocidib single agent, two hours. How it is done: as §4
The test system of series [10] is MCL-1 and c-MYC/N-MYC. The series is described as follows: Protein expression by western blotting in A549 cells. Conditions: 100 nM, time course. In kind it is cell-based, human. How it is done: as §3

The values that follow come from patent US20200316084A1, “METHODS TO TARGET TRANSCRIPTIONAL CONTROL AT SUPER-ENHANCER REGIONS” (TOLERO PHARMACEUTICALS, INC., priority 2014, published 2020).

Sequence of CDK9 and Hexim1 (P50750 whole entry): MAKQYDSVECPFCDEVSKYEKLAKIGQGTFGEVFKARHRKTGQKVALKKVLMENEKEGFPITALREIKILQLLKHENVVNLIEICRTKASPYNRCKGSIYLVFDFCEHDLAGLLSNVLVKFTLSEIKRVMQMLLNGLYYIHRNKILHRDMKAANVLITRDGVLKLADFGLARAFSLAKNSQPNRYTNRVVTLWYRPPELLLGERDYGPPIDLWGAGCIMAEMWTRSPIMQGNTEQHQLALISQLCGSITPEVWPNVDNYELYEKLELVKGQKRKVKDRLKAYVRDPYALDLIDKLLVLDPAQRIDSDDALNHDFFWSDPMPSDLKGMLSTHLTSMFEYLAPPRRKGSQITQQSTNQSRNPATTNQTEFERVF
Sequence of CDK9 and Hexim1 (O60563 whole entry partner): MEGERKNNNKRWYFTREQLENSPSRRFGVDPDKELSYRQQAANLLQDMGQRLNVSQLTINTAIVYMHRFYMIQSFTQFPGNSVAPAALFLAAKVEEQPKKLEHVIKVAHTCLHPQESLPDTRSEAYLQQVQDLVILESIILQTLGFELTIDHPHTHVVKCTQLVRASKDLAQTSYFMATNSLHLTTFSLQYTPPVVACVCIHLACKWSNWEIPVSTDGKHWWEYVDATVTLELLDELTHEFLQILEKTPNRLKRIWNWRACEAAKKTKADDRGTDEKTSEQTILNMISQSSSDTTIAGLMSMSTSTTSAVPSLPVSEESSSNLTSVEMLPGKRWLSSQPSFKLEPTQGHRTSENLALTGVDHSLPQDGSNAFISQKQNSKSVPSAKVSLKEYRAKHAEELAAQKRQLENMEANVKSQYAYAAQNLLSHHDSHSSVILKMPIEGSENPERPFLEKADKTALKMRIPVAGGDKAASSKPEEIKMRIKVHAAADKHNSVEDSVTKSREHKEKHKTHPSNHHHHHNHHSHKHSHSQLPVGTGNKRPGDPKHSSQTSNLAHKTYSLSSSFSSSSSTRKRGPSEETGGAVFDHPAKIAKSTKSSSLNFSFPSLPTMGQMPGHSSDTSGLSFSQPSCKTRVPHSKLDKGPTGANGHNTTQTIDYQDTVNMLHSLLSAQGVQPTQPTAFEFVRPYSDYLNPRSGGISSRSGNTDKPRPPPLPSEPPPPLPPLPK

On to `Cc1sc2c(c1C)C(c1ccc(Cl)cc1)=N[C@@H](CC(=O)OC(C)(C)C)c1nnc(C)n1-2` [JQ-1], for which the IC50 (as a rule, the concentration at which inhibition is half-maximal) in the series on MOLM13 (20 nM alvocidib 48 h) was found to be 209 nM; in the series on MOLM13 (without alvocidib (DMSO 48 h)), 526 nM; in the series with MV4-11 (20 nM alvocidib 48 h) it was 133 nM; with MV4-11 (without alvocidib (DMSO 48 h)), 228 nM. In addition, in the series on MOLM13 (MOLM13 and MV4-11), the “fold lower IC50 on addition of 20 nM alvocidib” value was 2 fold. In addition, the “expression of c-MYC normalized to HPRT1 and DMSO control” value in the series on c-MYC is reported as “downregulated”. For the same molecule, the “effect on tumor volume” value with MV4-11 cells was “no measurable activity”. Besides, in series [1], the body weight result was “comparable”.

`Cc1[nH]c2ccccc2c1CCNCc1ccc(/C=C/C(=O)NO)cc1` [Panobinostat, panobinostat]: the IC50 in the series with MOLM13 (Homo sapiens, MOLM-13, 48 h, 20 nM alvocidib 48 h) was found to be 5 nM; in the series on MOLM13 (Homo sapiens, MOLM-13, 48 h, without alvocidib (DMSO 48 h)), 16 nM; in the series on MV4-11 (Homo sapiens, MV4-11, 48 h, 20 nM alvocidib 48 h) it was 3 nM; in the series with MV4-11 (Homo sapiens, MV4-11, 48 h, without alvocidib (DMSO 48 h)), 18 nM.

On to `CN1CC[C@H](c2c(O)cc(O)c3c(=O)cc(-c4ccccc4Cl)oc23)[C@H](O)C1` [alvocidib], for which the “protein expression of MCL-1 and c-MYC/N-MYC” value in the series with MCL-1 and c-MYC/N-MYC [2] was “represses protein expression”; in the series on MCL-1 and c-MYC/N-MYC [10], “represses protein expression”. For the same molecule, the “expression of c-MYC normalized to HPRT1 and DMSO control” value with c-MYC was “downregulated”. In addition, the “MCL-1 mRNA expression” value is “represses MCL-1 mRNA expression” in the series on MCL-1 [3]; “repressed” in the series on MCL-1 [6] (30 minute time point); “maximum repression” in the series with MCL-1 [6] (1 hour post-dose); “repression is reduced” with MCL-1 [6] (2 hour time point); “no inhibition” in the series with MCL-1 [6] (3 hour time point). Further, the mRNA expression entry in series [4] (0.1 μM dose, 2 hour time point) is reported as “noticeably repressed”. The “expression of mRNA normalized to β-actin and control” value in series [4] (24 and 48 hour time points) was “downregulated the expression of mRNA completely”. For the same molecule, the “mRNA expression relative to β-actin and vehicle control” value in series [4] (doses of 1 μM up to 8 μM, 2 hours) was “Complete repression”. Also, the MYC expression entry in the series with MYC [5] is given as “completely eliminates”. Further, the “tumor size relative to vehicle” value with MV4-11 cells (2.5 mg/kg alvocidib i.p., throughout the study) was “approximately 50%”. For the same molecule, the “effect on tumor volume” value in the series on MV4-11 cells was “moderate activity”. The CDK9/Hexim1 association result is “increased CDK9/Hexim1 association” on CDK9 and Hexim1 (500 nM dose, half hour time point); “dose dependent increase” at CDK9 and Hexim1 (2 hr treatment, different doses). For the same molecule, the “association of CDK9 and Hexim1” value at CDK9 and Hexim1 (1 mM alvocidib, time course) was “increases association of CDK9 and Hexim1 in a time dependent manner”. The body weight result in series [1] is listed as “comparable”. Also, in the series with MCL-1 [7], the “MCL-1 mRNA expression relative to HPRT1” value was “represses MCL-1 mRNA expression in a dose dependent manner”. In addition, the “MYC mRNA expression relative to HPRT1” value with MYC [8] is on record as “represses MYC mRNA expression in a dose dependent manner”. Moreover, the “reduction of MCL-1 expression” value with MCL-1 [9] stood at 60%.
